Consider 17 molecules from US7074789B2, “Kinase inhibitors” (Amgen Inc., priority 1999, dated 2006).

Where two headings read alike, the source gives them in different places.

Common to all, as to type: biochemical
In one assay the target is T1, Lck (Homo sapiens, UniProt P06239).
T1 construct: Kinases are expressed as either kinase domains or full length constructs; made in house
Kind of assay: Kinase inhibition assay (33P transfer), Lck. Conditions: read-out: Lck-1. Put shortly: (§1)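 Each kinase, expressed as a GST- or polyHis-tagged domain or full-length protein, phosphorylated plate-attached poly(Glu,Tyr) 4:1 or poly(Arg,Ser) 3:1 using 33P-ATP. Bound radioactivity was measured by scintillation after a 0.5% phosphoric acid wash.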

The target of another assay is T2, Zap-70 (Homo sapiens, UniProt P43403).
T2 construct: Kinases are expressed as either kinase domains or full length constructs; made in house
T2 sequence (P43403 1-619): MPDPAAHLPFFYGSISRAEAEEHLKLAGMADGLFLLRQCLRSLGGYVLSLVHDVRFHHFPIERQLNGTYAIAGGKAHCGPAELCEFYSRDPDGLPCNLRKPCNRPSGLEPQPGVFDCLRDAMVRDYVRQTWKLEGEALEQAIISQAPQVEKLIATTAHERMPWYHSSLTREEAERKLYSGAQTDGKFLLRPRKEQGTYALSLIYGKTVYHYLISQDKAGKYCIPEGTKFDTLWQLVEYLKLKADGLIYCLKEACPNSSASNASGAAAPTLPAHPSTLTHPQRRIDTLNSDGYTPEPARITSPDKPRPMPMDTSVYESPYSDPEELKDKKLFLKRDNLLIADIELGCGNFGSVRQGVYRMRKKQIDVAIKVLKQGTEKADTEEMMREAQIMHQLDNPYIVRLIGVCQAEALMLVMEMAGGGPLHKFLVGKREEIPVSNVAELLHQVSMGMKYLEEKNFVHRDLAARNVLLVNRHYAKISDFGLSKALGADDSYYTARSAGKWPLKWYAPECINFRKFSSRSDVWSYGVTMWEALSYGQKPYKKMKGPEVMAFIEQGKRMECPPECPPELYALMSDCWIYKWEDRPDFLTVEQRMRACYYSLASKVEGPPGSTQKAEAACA
Kind of assay: Kinase inhibition assay (33P transfer), Zap-70. To be noted: read-out: Zap-1. In a few lines: as §1

Another assay addresses T3, Itk (Homo sapiens, UniProt Q08881).
T3 construct: Kinases are expressed as either kinase domains or full length constructs; made in house
T3 sequence (Q08881 1-620): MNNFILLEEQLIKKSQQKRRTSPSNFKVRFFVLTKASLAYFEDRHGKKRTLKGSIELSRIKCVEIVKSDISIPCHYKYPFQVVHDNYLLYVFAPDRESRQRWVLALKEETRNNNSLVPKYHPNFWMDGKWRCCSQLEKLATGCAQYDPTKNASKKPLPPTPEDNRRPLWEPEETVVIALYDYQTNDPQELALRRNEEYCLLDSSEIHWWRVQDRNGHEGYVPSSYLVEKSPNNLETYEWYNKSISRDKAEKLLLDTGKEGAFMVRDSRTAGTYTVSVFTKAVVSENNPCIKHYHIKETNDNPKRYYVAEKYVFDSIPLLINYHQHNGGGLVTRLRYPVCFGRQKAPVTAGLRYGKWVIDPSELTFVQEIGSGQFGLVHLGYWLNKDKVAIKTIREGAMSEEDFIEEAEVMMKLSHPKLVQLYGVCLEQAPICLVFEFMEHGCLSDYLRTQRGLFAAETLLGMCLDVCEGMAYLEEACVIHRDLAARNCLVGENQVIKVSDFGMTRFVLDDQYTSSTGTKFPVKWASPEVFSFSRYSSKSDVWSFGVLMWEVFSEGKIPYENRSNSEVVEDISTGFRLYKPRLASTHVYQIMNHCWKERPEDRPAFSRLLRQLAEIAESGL
Kind of assay: Kinase inhibition assay (33P transfer), Itk. To be noted: read-out: Itk-1. In a few lines:
(§2)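 Recombinant kinase domains or full-length GST- or His-tagged constructs, from E. coli or baculovirus/High Five cells, sometimes with regulatory polypeptides. Transfer of 33P from ATP to plate-bound poly(Glu,Tyr) 4:1 or poly(Arg,Ser) 3:1 counted by liquid scintillation after phosphoric acid wash; IC50 is the concentration halving incorporation.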

A further assay deals with T4, EGFR (Homo sapiens, UniProt P00533).
T4 construct: Kinases are expressed as either kinase domains or full length constructs; made in house
Kind of assay: Kinase inhibition assay (33P transfer), EGFR. Conditions: Table 2, kinase inhibition class; read-out: EGFR-1. Put shortly: as §2

The next assay addresses T5, Kdr (Homo sapiens, UniProt P35968).
T5 construct: Kinases are expressed as either kinase domains or full length constructs; made in house
Kind of assay: Kinase inhibition assay (33P transfer), Kdr. Conditions: read-out: KDR-1. In a few lines: as §1

Another assay addresses T6, Tek (Homo sapiens, UniProt Q02763).
T6 construct: Kinases are expressed as either kinase domains or full length constructs; made in house
Kind of assay: Kinase inhibition assay (33P transfer), Tek. To be noted: read-out: Tek-1. Put shortly:
as §2

The target in another assay is T7, c-Met (Homo sapiens, UniProt P08581).
T7 construct: Kinases are expressed as either kinase domains or full length constructs; made in house
Kind of assay: Kinase inhibition assay (33P transfer), c-Met. Conditions: Table 2, kinase inhibition class; read-out: Met-1. In a few lines:
as §2

In the next assay the target is T8, AKT (Homo sapiens, UniProt Q9Y243).
T8 construct: Kinases are expressed as either kinase domains or full length constructs; made in house
Kind of assay: Kinase inhibition assay (33P transfer), AKT. Conditions: Table 2, kinase inhibition class; read-out: AKT3-1. Put shortly:
as §1

T8 sequence (Q9Y243 whole entry, the tested form may be a part): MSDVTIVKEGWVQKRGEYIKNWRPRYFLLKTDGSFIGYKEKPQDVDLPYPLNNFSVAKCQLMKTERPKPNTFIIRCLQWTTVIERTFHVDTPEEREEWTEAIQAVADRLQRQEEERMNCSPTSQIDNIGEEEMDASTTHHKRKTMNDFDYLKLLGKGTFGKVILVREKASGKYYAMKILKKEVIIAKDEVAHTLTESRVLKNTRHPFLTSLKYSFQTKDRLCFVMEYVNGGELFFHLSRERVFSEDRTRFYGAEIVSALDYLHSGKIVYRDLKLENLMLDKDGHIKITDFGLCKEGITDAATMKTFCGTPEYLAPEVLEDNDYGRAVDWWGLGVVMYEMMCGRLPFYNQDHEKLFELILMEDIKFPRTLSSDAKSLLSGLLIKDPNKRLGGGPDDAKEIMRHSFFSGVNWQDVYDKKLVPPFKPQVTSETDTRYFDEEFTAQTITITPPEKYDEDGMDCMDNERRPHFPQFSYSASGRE
T6 sequence (Q02763 23-1124, species assumed): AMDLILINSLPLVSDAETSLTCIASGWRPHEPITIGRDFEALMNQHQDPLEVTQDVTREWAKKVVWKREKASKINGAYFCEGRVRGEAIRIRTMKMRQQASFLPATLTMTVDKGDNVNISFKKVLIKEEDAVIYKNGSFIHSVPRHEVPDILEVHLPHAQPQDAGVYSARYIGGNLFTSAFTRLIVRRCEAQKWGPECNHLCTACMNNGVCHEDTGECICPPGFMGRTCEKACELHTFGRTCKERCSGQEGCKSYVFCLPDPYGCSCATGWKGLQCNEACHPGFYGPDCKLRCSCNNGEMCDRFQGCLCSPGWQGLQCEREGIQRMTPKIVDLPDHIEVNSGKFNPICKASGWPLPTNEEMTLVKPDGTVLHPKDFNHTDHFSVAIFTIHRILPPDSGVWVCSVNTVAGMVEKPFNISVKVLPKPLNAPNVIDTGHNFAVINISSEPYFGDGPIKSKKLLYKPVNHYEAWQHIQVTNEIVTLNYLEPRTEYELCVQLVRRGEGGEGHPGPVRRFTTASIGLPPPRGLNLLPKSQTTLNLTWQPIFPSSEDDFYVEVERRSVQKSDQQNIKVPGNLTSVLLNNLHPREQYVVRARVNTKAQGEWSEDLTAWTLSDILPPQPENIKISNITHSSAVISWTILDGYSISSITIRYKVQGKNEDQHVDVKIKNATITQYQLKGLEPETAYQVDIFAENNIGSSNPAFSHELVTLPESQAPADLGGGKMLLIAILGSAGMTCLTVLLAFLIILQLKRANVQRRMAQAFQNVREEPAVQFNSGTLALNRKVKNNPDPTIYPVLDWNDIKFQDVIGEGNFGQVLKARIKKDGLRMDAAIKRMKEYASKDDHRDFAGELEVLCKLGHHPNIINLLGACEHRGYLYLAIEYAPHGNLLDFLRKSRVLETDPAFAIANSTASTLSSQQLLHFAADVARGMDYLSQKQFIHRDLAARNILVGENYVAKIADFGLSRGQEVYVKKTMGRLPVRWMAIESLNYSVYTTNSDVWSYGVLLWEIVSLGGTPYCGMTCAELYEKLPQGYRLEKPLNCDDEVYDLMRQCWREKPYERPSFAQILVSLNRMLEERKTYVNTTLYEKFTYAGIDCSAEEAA
T7 sequence (P08581 25-1390): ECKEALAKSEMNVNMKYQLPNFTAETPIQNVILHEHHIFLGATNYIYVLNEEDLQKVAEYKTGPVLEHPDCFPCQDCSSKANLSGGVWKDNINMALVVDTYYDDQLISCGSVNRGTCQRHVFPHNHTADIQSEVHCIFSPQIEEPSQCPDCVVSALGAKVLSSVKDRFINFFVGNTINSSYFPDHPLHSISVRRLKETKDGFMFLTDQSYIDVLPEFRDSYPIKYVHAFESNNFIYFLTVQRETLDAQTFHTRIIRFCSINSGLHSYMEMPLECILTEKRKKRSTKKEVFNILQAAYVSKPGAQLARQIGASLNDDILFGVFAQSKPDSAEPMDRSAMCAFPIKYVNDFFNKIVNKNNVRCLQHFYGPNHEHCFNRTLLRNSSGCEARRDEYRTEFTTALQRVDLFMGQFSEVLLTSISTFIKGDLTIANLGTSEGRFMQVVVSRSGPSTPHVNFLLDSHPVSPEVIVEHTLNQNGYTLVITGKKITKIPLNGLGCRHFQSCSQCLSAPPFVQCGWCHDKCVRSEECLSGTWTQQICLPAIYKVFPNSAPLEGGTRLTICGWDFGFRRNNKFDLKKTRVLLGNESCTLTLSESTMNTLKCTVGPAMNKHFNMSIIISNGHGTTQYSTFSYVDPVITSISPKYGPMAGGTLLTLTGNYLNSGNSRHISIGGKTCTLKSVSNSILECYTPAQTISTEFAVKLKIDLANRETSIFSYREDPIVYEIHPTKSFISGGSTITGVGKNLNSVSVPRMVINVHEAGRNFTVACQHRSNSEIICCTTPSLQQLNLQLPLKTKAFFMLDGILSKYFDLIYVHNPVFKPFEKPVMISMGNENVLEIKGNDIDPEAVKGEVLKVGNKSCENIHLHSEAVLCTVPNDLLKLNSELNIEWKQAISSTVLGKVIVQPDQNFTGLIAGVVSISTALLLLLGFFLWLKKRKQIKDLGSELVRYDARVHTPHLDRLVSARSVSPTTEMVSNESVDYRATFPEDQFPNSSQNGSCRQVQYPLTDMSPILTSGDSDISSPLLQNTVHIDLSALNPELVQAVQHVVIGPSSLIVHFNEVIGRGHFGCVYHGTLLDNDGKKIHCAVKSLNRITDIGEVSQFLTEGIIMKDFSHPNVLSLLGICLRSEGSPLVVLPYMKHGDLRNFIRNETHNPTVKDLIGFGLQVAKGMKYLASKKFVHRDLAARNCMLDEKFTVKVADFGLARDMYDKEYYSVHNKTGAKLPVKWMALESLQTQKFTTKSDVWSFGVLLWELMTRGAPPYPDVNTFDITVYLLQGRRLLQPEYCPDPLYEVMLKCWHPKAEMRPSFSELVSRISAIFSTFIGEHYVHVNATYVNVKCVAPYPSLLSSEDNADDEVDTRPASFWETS
T1 sequence (P06239 whole entry, species assumed, the tested form may be a part): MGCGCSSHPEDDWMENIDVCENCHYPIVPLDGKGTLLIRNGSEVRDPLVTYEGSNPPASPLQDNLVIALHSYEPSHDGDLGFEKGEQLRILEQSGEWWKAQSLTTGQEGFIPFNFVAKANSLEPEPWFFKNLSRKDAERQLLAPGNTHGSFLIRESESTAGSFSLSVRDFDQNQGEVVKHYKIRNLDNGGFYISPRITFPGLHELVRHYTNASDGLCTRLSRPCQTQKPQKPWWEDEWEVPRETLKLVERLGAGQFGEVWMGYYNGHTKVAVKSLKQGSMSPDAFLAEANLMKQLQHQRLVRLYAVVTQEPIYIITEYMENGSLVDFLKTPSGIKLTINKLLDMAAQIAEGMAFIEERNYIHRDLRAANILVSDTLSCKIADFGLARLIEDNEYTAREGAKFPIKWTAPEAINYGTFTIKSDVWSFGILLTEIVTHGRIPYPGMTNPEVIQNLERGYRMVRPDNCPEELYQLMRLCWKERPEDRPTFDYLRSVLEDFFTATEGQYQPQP
T5 sequence (P35968 20-1356, species assumed): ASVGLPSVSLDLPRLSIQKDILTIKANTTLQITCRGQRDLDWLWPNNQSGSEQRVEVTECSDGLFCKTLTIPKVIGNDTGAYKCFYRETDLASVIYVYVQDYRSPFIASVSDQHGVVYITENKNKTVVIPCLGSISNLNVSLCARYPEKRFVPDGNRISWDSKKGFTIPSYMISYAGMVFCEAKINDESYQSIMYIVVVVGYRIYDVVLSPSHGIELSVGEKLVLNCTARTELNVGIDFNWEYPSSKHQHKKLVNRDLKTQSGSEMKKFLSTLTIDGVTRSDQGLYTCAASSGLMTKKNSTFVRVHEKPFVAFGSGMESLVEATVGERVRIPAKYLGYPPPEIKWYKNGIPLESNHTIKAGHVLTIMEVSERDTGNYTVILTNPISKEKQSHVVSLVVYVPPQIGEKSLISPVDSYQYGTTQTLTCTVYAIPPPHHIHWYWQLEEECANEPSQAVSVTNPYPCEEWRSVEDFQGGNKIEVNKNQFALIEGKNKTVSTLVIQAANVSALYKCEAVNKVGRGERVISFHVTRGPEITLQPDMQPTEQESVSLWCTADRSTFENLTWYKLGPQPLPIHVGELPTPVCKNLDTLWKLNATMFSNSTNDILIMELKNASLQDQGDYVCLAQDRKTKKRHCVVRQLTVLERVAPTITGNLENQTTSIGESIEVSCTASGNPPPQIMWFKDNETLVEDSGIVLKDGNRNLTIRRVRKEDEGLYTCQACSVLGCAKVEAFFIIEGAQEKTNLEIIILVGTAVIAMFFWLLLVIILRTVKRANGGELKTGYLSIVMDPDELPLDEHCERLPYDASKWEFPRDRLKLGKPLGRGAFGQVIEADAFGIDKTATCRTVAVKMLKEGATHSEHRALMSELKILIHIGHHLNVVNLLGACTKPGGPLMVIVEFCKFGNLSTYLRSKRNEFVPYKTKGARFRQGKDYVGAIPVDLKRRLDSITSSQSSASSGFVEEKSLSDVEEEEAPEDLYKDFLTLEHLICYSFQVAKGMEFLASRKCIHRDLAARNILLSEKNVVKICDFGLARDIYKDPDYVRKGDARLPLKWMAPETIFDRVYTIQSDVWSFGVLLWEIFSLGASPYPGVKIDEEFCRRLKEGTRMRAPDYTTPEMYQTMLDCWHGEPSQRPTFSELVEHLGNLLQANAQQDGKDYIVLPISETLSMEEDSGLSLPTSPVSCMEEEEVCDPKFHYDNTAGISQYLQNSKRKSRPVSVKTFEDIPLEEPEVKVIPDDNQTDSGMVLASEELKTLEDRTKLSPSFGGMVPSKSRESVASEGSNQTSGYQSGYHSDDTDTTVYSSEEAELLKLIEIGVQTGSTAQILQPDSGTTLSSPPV

`Nc1nc2ccccc2n1-c1ncnc(Nc2ccc(OC(F)(F)F)cc2)n1` [Compound 647]: the IC50 at Lck was greater than 11.6 µM; at Zap-70 it was greater than 11.6 µM; on Itk, greater than 11.6 µM; on EGFR, 1.03 to 6.2 µM; at Kdr it was 1.03 to 6.2 µM; at Tek, greater than 11.6 µM. Besides, the IC50 at c-Met and on AKT was greater than 11.6 µM in each case.

With `COc1cc(Nc2ncnc(-n3c(NCc4ccccn4)nc4ccccc43)n2)cc(OCCN2CCOCC2)c1OC` [Compound 507], the IC50 on Lck was 0.685 to 4.11 µM; at Zap-70, greater than 7.71 µM; at Itk, greater than 7.71 µM; at EGFR, greater than 7.71 µM; on Kdr, less than 0.685 µM; on Tek, 6 to 7.71 µM. The IC50 on c-Met and on AKT was greater than 7.71 µM each time.

On to `COc1cc(Nc2ncnc(-n3c(N[C@H](CO)c4ccccc4)nc4ccccc43)n2)cc(OC)c1OC` [Compound 1035], for which the IC50 on Lck was greater than 8.76 µM; on Zap-70, greater than 8.76 µM; at Itk, greater than 8.76 µM; on EGFR, greater than 8.76 µM; on Kdr it was less than 0.779 µM; at Tek, greater than 8.76 µM. Moreover, the IC50 on c-Met and on AKT was greater than 8.76 µM throughout.

Turning to `Nc1nc2ccccc2n1-c1ncnc(Nc2ccc3c(c2)OCO3)n1` [Compound 526], the IC50 at Lck was 1.15 to 6.91 µM; at Zap-70, 1.15 to 6.91 µM; at Itk it was 1.15 to 6.91 µM; at EGFR it was 1.15 to 6.91 µM; on Kdr, less than 1.15 µM; at Tek, 1.15 to 6.91 µM. Moreover, the IC50 at c-Met was 1.15 to 6.91 µM; at AKT, 6.91 to 10.1 µM.

With `COc1ccc(-c2ncnc(Nc3cc(OC)c(OC)c(OC)c3)n2)cc1OC` [Compound 230], the IC50 was 1 to 6.02 µM on Lck; greater than 11.3 µM at Zap-70; 8.78 to 11.3 µM at Itk; 8.78 to 11.3 µM at EGFR; less than 1 µM on Kdr; 8.78 to 11.3 µM at Tek. The IC50 on c-Met and on AKT was greater than 11.3 µM in each case.

Consider `COc1cc(Nc2ncnc(-n3c(Nc4cc(OC)c(OC)c(OC)c4)nc4ccccc43)n2)cc(OC)c1OC` [Compound 402], for which the IC50 was greater than 8.04 µM at Lck (Table 3); greater than 8.04 µM on Zap-70 (Table 3); greater than 8.04 µM on Itk (Table 3); greater than 8.04 µM at EGFR; 0.715 to 4.29 µM on Kdr (Table 3); greater than 8.04 µM on Tek. The IC50 on c-Met and at AKT was greater than 8.04 µM throughout.

Turning to `COc1cc(Nc2ncnc(-n3c(N(C)C)nc4ccccc43)n2)cc(OC)c1OC` [Compound 405], the IC50 on Lck (Table 3) is greater than 10.7 µM; at Zap-70 (Table 3), greater than 10.7 µM; on Itk (Table 3), greater than 10.7 µM; at EGFR, greater than 10.7 µM; on Kdr (Table 3), 0.949 to 5.69 µM; at Tek, greater than 10.7 µM. Further, the IC50 at c-Met and at AKT was greater than 10.7 µM each time.

As for `COc1ccc(Nc2ncnc(-n3c(=O)[nH]c4ccccc43)n2)cc1OC` [Compound 494], the IC50 is 6.59 to 9.61 µM at Lck; greater than 12.4 µM on Zap-70; greater than 12.4 µM on Itk; 6.59 to 9.61 µM at EGFR; less than 1.1 µM on Kdr; greater than 12.4 µM at Tek. Also, the IC50 on c-Met and on AKT was greater than 12.4 µM throughout.

`O=c1[nH]c2ccccc2n1-c1ncnc(Nc2nccc3ccccc23)n1` [Compound 689]: the IC50 at Lck was 6.75 to 9.85 µM; on Zap-70 it was 1.13 to 6.75 µM; on Itk, greater than 12.7 µM; on EGFR it was 1.13 to 6.75 µM; at Kdr, 6.75 to 9.85 µM; on Tek, 6.75 to 9.85 µM. Further, the results for the IC50 at c-Met and on AKT were 6.75 to 9.85 µM and greater than 12.7 µM, respectively.

`COc1cc(Nc2ncnc(-n3c(NCc4ncccc4C)nc4ccccc43)n2)cc(OC)c1OC` [Compound 941]: the IC50 on Lck, at Zap-70, at Itk, on EGFR, on Kdr and at Tek was greater than 9.03 µM each time. Moreover, the IC50 on c-Met and at AKT was greater than 9.03 µM throughout.

With `O=c1[nH]c2ccccc2n1-c1ncnc(Nc2ccc(Cl)cc2Cl)n1` [Compound 504], the IC50 is greater than 12.1 µM at Lck; greater than 12.1 µM at Zap-70; greater than 12.1 µM on Itk; greater than 12.1 µM at EGFR; greater than 12.1 µM on Kdr; 1.07 to 6.43 µM at Tek. Further, the IC50 at c-Met and on AKT was greater than 12.1 µM each time.

As for `COc1cc(Nc2ncnc(NN3CCCC3)n2)cc(OC)c1OC` [Compound 1002], the IC50 was greater than 13 µM on Lck; greater than 13 µM at Zap-70; greater than 13 µM at Itk; greater than 13 µM on EGFR; 10.1 to 13 µM on Kdr; greater than 13 µM at Tek. The IC50 on c-Met and at AKT was greater than 13 µM in each case.

With `COc1ccc(Nc2ncnc(-n3c(N)nc4ccccc43)n2)cn1` [Compound 648], the IC50 at Lck is greater than 13.5 µM; at Zap-70, greater than 13.5 µM; on Itk, greater than 13.5 µM; on EGFR, greater than 13.5 µM; on Kdr, 1.2 to 7.18 µM; on Tek, greater than 13.5 µM. The IC50 on c-Met and on AKT was greater than 13.5 µM each time.

Regarding `O=c1[nH]c2ccccc2n1-c1ncnc(Nc2ccc(Br)c(Cl)c2)n1` [Compound 483], the IC50 at Lck is 5.75 to 8.38 µM; on Zap-70 it was 0.958 to 5.75 µM; at Itk it was greater than 10.8 µM; on EGFR, 0.958 to 5.75 µM; at Kdr, 0.958 to 5.75 µM; at Tek, 0.958 to 5.75 µM. Besides, the IC50 at c-Met and at AKT was greater than 10.8 µM each time.

Consider `COc1cc(Nc2ncnc(-c3cccnc3Cl)n2)cc(OC)c1OC` [Compound 1075], for which the IC50 on Lck was greater than 12 µM; on Zap-70, greater than 12 µM; on Itk, greater than 12 µM; at EGFR it was greater than 12 µM; at Kdr, 9.36 to 12 µM; on Tek, greater than 12 µM. For the same molecule, the IC50 at c-Met and at AKT was greater than 12 µM throughout.

Regarding `COc1cc(Nc2ncnc(-n3ccc4ccc(F)cc43)n2)cc(OC)c1OC` [Compound 464], the IC50 at Lck (Table 3) was 6.07 to 8.85 µM; at Zap-70 (Table 3), greater than 11.4 µM; at Itk (Table 3) it was greater than 11.4 µM; on EGFR, greater than 11.4 µM; at Kdr (Table 3) it was 1.01 to 6.07 µM; at Tek, greater than 11.4 µM. Also, the IC50 on c-Met and on AKT was greater than 11.4 µM in each case.

For the molecule `COc1cc(Nc2ncnc(Nc3ccc(NC(=O)O[C@@H]4CCOC4)cc3)n2)cc(OC)c1OC` [Compound 693], the IC50 is 0.829 to 4.97 µM at Lck; greater than 9.33 µM on Zap-70; 4.97 to 7.25 µM at Itk; 0.829 to 4.97 µM on EGFR; 0.829 to 4.97 µM at Kdr; greater than 9.33 µM on Tek. The IC50 at c-Met was 0.829 to 4.97 µM; at AKT, greater than 9.33 µM.
